Values quoted from earlier work in US7943615B2, “Fused aminopiperidines as dipeptidyl peptidase-4 inhibitors for the treatment or prevention of diabetes” (Merck Sharp & Dohme Corp., priority 2005, dated 2011).
Blank lines part the entries; values can stand above or below the compound they belong to.

Columns and labels:
cardiac allograft = conditions: rats; doubled from day 7
hematopoiesis = conditions: mouse, cyclophosphamide-induced neutropenia
DPP-4 = biological target: T1, DPP-4 (Homo sapiens, UniProt P27487)
T1 construct: GRF is rapidly degraded in plasma to GRF[344]
T1 sequence (P27487 whole entry, species assumed): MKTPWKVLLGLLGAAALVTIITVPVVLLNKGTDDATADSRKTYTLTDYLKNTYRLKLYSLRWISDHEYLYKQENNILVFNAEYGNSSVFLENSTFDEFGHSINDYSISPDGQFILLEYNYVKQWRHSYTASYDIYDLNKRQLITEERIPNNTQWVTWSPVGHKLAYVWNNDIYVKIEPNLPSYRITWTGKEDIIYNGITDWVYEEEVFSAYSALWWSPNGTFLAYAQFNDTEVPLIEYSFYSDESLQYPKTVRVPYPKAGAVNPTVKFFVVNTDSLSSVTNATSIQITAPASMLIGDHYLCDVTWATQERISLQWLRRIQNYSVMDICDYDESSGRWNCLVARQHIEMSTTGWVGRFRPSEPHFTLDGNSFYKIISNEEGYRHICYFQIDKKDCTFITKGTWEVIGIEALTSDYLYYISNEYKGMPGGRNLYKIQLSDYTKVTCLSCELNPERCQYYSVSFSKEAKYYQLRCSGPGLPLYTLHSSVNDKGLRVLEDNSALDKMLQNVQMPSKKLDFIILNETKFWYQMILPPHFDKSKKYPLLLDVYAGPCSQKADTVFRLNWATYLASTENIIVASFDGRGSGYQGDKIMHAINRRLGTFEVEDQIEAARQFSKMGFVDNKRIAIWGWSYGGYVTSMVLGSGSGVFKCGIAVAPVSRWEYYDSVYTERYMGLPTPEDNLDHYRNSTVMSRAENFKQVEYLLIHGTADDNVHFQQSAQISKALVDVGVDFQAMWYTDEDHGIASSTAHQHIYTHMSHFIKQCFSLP

Compound: CC(C)N1CCC(c2ccccc2)(c2ccccc2)CC1 [Prodipine, Pro-Pro-diphenyl-phosphonate]
cardiac allograft survival (cardiac allograft): 14 day

Compound: CC(C)[C@H](N)C(=O)N1CCC[C@H]1B(O)O [Val-Boro-Pro]
effect on hematopoiesis (hematopoiesis): stimulated hematopoiesis

effect on degradation of GRF in plasma (DPP-4): prevented
Compound: diprotin A
